Test in all cases: relative viability (nuclei count vs DMSO), 5 days (fraction); higher = more cells survive
Compound in assay [1]: C[C@H]([C@@H](C(=O)N)NC(=O)[C@@H]1CSSC[C@@H](C(=O)N[C@H](C(=O)N[C@@H](C(=O)N[C@H](C(=O)N1)CCCCN)CC2=CNC3=CC=CC=C32)CC4=CC=C(C=C4)O)NC(=O)[C@@H](CC5=CC=CC=C5)N)O [CAP-232] + Cc1cc(Nc2cc(N3CCN(C)CC3)nc(Sc3ccc(NC(=O)C4CC4)cc3)n2)n[nH]1 [Tozasertib] (partner 0.1 µM)
An outline of the steps:
(§1)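 Nuclei were stained with Hoechst during a one-step fixation (final 0.05% Triton X-100, 1% formaldehyde, 1 ug/ml Hoechst) carried out 5 days after dosing, then counted on 4× images. The cells, lung cancer lines in 1536-well plates, had been dosed by pin tool the day after seeding with one drug alone or a fixed anchor-drug dose plus five library-drug doses (not always all listed) in √10 steps. Relative viability is the nuclei count in treated wells divided by that in vehicle wells, and each value is the median of duplicate plates.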

Compound in assay [2]: C[C@H]([C@@H](C(=O)N)NC(=O)[C@@H]1CSSC[C@@H](C(=O)N[C@H](C(=O)N[C@@H](C(=O)N[C@H](C(=O)N1)CCCCN)CC2=CNC3=CC=CC=C32)CC4=CC=C(C=C4)O)NC(=O)[C@@H](CC5=CC=CC=C5)N)O [CAP-232] + COc1cccc2cc(-c3nc([C@H]4CC[C@H](C(=O)O)CC4)n4ncnc(N)c34)[nH]c12 [OSI-027] (partner 0.5 µM)
An outline of the steps:
as §1

Compound in assay [3]: C[C@H]([C@@H](C(=O)N)NC(=O)[C@@H]1CSSC[C@@H](C(=O)N[C@H](C(=O)N[C@@H](C(=O)N[C@H](C(=O)N1)CCCCN)CC2=CNC3=CC=CC=C32)CC4=CC=C(C=C4)O)NC(=O)[C@@H](CC5=CC=CC=C5)N)O [CAP-232] + Nc1nc2[nH]cc(CCc3ccc(C(=O)N[C@@H](CCC(=O)O)C(=O)O)cc3)c2c(=O)[nH]1 [Pemetrexed] (partner 0.2 µM)
The method, boiled down: as §1

Compound in assay [4]: C[C@H]([C@@H](C(=O)N)NC(=O)[C@@H]1CSSC[C@@H](C(=O)N[C@H](C(=O)N[C@@H](C(=O)N[C@H](C(=O)N1)CCCCN)CC2=CNC3=CC=CC=C32)CC4=CC=C(C=C4)O)NC(=O)[C@@H](CC5=CC=CC=C5)N)O [CAP-232] + CC1(C)CCC(c2ccc(Cl)cc2)=C(CN2CCN(c3ccc(C(=O)NS(=O)(=O)c4ccc(N[C@H](CCN5CCOCC5)CSc5ccccc5)c(S(=O)(=O)C(F)(F)F)c4)cc3)CC2)C1 [Navitoclax] (partner 0.5 µM)
An outline of the steps:
as §1

Compound in assay [5]: C[C@H]([C@@H](C(=O)N)NC(=O)[C@@H]1CSSC[C@@H](C(=O)N[C@H](C(=O)N[C@@H](C(=O)N[C@H](C(=O)N1)CCCCN)CC2=CNC3=CC=CC=C32)CC4=CC=C(C=C4)O)NC(=O)[C@@H](CC5=CC=CC=C5)N)O [CAP-232] + COc1cc2c(Oc3ccc(NC(=O)C4(C(=O)Nc5ccc(F)cc5)CC4)cc3F)ccnc2cc1OCCCN1CCOCC1 [Foretinib] (partner 0.25 µM)
An outline of the steps:
as §1

Take NCI-H23: the relative viability in assay [1] (first compound 0.4 µM) stood at 0.416; in assay [1] (first compound 1.265 µM) it was 0.386; in assay [1] (first compound 4 µM) it was 0.384; in assay [1] (first compound 12.65 µM), 0.309; in assay [2] (first compound 0.4 µM) it was 0.64; in assay [2] (first compound 1.265 µM), 0.529. Moreover, the relative viability amounted to 0.687 in assay [2] (first compound 4 µM); 0.487 in assay [2] (first compound 12.65 µM); 0.686 in assay [3] (first compound 0.4 µM); 0.492 in assay [3] (first compound 1.265 µM); 0.746 in assay [3] (first compound 4 µM); 0.623 in assay [3] (first compound 12.65 µM). Moreover, the relative viability in assay [4] (first compound 0.4 µM) was found to be 0.806; in assay [4] (first compound 1.265 µM), 0.861; in assay [4] (first compound 4 µM) it was 0.982; in assay [4] (first compound 12.65 µM) it was 0.713; in assay [5] (first compound 0.4 µM), 0.926; in assay [5] (first compound 1.265 µM), 0.883. In addition, the values for the relative viability in assay [5] (first compound 4 µM) and in assay [5] (first compound 12.65 µM) were 0.718 and 0.802, respectively.

In the case of NCI-H322M, the relative viability worked out at 0.448 in assay [1] (first compound 0.4 µM); 0.5 in assay [1] (first compound 1.265 µM); 0.515 in assay [1] (first compound 4 µM); 0.498 in assay [1] (first compound 12.65 µM); 0.569 in assay [2] (first compound 0.4 µM); 0.528 in assay [2] (first compound 1.265 µM). The relative viability was found to be 0.52 in assay [2] (first compound 4 µM); 0.437 in assay [2] (first compound 12.65 µM); 0.621 in assay [3] (first compound 0.4 µM); 0.645 in assay [3] (first compound 1.265 µM); 0.599 in assay [3] (first compound 4 µM); 0.788 in assay [3] (first compound 12.65 µM). For the same cell line, the relative viability in assay [4] (first compound 0.4 µM) was found to be 1.32; in assay [4] (first compound 1.265 µM) it was 1.26; in assay [4] (first compound 4 µM), 1.36; in assay [4] (first compound 12.65 µM) it was 1.13; in assay [5] (first compound 0.4 µM), 1.05; in assay [5] (first compound 1.265 µM) it was 0.962. The relative viability is 0.952 in assay [5] (first compound 4 µM) and 0.985 in assay [5] (first compound 12.65 µM).

As to NCI-H441, the relative viability is 0.628 in assay [1] (first compound 0.4 µM); 0.58 in assay [1] (first compound 1.265 µM); 0.571 in assay [1] (first compound 4 µM); 0.653 in assay [1] (first compound 12.65 µM); 0.527 in assay [2] (first compound 0.4 µM); 0.683 in assay [2] (first compound 1.265 µM). Also, the relative viability stood at 0.602 in assay [2] (first compound 4 µM); 0.686 in assay [2] (first compound 12.65 µM); 0.25 in assay [3] (first compound 0.4 µM); 0.234 in assay [3] (first compound 1.265 µM); 0.281 in assay [3] (first compound 4 µM); 0.262 in assay [3] (first compound 12.65 µM). Moreover, the relative viability in assay [4] (first compound 0.4 µM) worked out at 0.554; in assay [4] (first compound 1.265 µM), 0.756; in assay [4] (first compound 4 µM), 0.717; in assay [4] (first compound 12.65 µM), 0.641; in assay [5] (first compound 0.4 µM), 0.895; in assay [5] (first compound 1.265 µM), 1.03. Besides, the relative viability in assay [5] (first compound 4 µM) was found to be 0.7; in assay [5] (first compound 12.65 µM), 1.07.

Values taken from the supplement of paper PMC10307832.
